{"source": "PubChem BioAssay (NCI)", "experiment_in_all_cases": "growth of human tumour cells (NCI), 48 h", "key": {"[1]": {"test_system": "786-0 renal"}, "[2]": {"test_system": "A498 renal"}, "[3]": {"test_system": "A549 NSCLC"}, "[4]": {"test_system": "ACHN renal"}, "[5]": {"test_system": "BT-549 breast"}, "[6]": {"test_system": "CAKI-1 renal"}, "[7]": {"test_system": "COLO 205 colon"}, "[8]": {"test_system": "DU-145 prostate"}, "[9]": {"test_system": "EKVX NSCLC"}, "[10]": {"test_system": "HCC-2998 colon"}, "[11]": {"test_system": "HCT-116 colon"}, "[12]": {"test_system": "HCT-15 colon"}, "[13]": {"test_system": "HOP-62 NSCLC"}, "[14]": {"test_system": "HOP-92 NSCLC"}, "[15]": {"test_system": "HS 578T breast"}, "[16]": {"test_system": "HT29 colon"}, "[17]": {"test_system": "IGROV1 ovarian"}, "[18]": {"test_system": "K-562 leukemia"}, "[19]": {"test_system": "KM12 colon"}, "[20]": {"test_system": "LOX IMVI melanoma"}, "[21]": {"test_system": "M14 melanoma"}, "[22]": {"test_system": "MALME-3M melanoma"}, "[23]": {"test_system": "MCF7 breast"}, "[24]": {"test_system": "MDA-MB-231 breast"}, "[25]": {"test_system": "MDA-MB-435"}, "[26]": {"test_system": "MDA-N"}, "[27]": {"test_system": "MOLT-4 leukemia"}, "[28]": {"test_system": "NCI-H226 lung"}, "[29]": {"test_system": "NCI-H23 lung"}, "[30]": {"test_system": "NCI-H460 lung"}, "[31]": {"test_system": "NCI-H522 lung"}, "[32]": {"test_system": "NCI/ADR-RES ovarian"}, "[33]": {"test_system": "OVCAR-3 ovarian"}, "[34]": {"test_system": "OVCAR-4 ovarian"}, "[35]": {"test_system": "OVCAR-5 ovarian"}, "[36]": {"test_system": "OVCAR-8 ovarian"}, "[37]": {"test_system": "PC-3 prostate"}, "[38]": {"test_system": "RPMI-8226 leukemia"}, "[39]": {"test_system": "RXF 393 renal"}, "[40]": {"test_system": "SF-268 CNS"}, "[41]": {"test_system": "SF-295 CNS"}, "[42]": {"test_system": "SF-539 CNS"}, "[43]": {"test_system": "SK-MEL-2 melanoma"}, "[44]": {"test_system": "SK-MEL-28 melanoma"}, "[45]": {"test_system": "SK-MEL-5 melanoma"}, "[46]": {"test_system": "SK-OV-3 ovarian"}, "[47]": {"test_system": "SN12C renal"}, "[48]": {"test_system": "SNB-19 CNS"}, "[49]": {"test_system": "SNB-75 CNS"}, "[50]": {"test_system": "SR leukemia"}, "[51]": {"test_system": "SW-620 colon"}, "[52]": {"test_system": "T-47D breast"}, "[53]": {"test_system": "TK-10 renal"}, "[54]": {"test_system": "U251 CNS"}, "[55]": {"test_system": "UACC-257 melanoma"}, "[56]": {"test_system": "UACC-62 melanoma"}, "[57]": {"test_system": "UO-31 renal"}}, "note": "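48-hour exposure; five concentrations; linearly interpolated endpoints. TGI denotes the concentration required for complete inhibition of growth.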", "data": [{"compound": "CC(C)(C)c1ccc(CN2CCN(C(c3ccccc3)c3ccc(Cl)cc3)CC2)cc1", "note": "(configuration not stated)", "values": [{"measurement": "TGI", "setting": "[1]", "value": "> 100", "unit": "µM"}, {"measurement": "TGI", "setting": "[2]", "value": "> 100", "unit": "µM"}, {"measurement": "TGI", "setting": "[3]", "value": "> 100", "unit": "µM"}, {"measurement": "TGI", "setting": "[4]", "value": "> 100", "unit": "µM"}, {"measurement": "TGI", "setting": "[5]", "value": "> 100", "unit": "µM"}, {"measurement": "TGI", "setting": "[6]", "value": "> 100", "unit": "µM"}, {"measurement": "TGI", "setting": "[7]", "value": "> 100", "unit": "µM"}, {"measurement": "TGI", "setting": "[8]", "value": "> 100", "unit": "µM"}, {"measurement": "TGI", "setting": "[9]", "value": "> 100", "unit": "µM"}, {"measurement": "TGI", "setting": "[10]", "value": 89.4, "unit": "µM"}, {"measurement": "TGI", "setting": "[11]", "value": "> 100", "unit": "µM"}, {"measurement": "TGI", "setting": "[12]", "value": "> 100", "unit": "µM"}, {"measurement": "TGI", "setting": "[13]", "value": "> 100", "unit": "µM"}, {"measurement": "TGI", "setting": "[14]", "value": "> 100", "unit": "µM"}, {"measurement": "TGI", "setting": "[15]", "value": "> 100", "unit": "µM"}, {"measurement": "TGI", "setting": "[16]", "value": 56.9, "unit": "µM"}, {"measurement": "TGI", "setting": "[17]", "value": "> 100", "unit": "µM"}, {"measurement": "TGI", "setting": "[18]", "value": "> 100", "unit": "µM"}, {"measurement": "TGI", "setting": "[19]", "value": "> 100", "unit": "µM"}, {"measurement": "TGI", "setting": "[20]", "value": "> 100", "unit": "µM"}, {"measurement": "TGI", "setting": "[21]", "value": "> 100", "unit": "µM"}, {"measurement": "TGI", "setting": "[22]", "value": "> 100", "unit": "µM"}, {"measurement": "TGI", "setting": "[23]", "value": "> 100", "unit": "µM"}, {"measurement": "TGI", "setting": "[24]", "value": "> 100", "unit": "µM"}, {"measurement": "TGI", "setting": "[25]", "value": "> 100", "unit": "µM"}, {"measurement": "TGI", "setting": "[26]", "value": "> 100", "unit": "µM"}, {"measurement": "TGI", "setting": "[27]", "value": "> 100", "unit": "µM"}, {"measurement": "TGI", "setting": "[28]", "value": 62.2, "unit": "µM"}, {"measurement": "TGI", "setting": "[29]", "value": "> 100", "unit": "µM"}, {"measurement": "TGI", "setting": "[30]", "value": "> 100", "unit": "µM"}, {"measurement": "TGI", "setting": "[31]", "value": 85.1, "unit": "µM"}, {"measurement": "TGI", "setting": "[32]", "value": "> 100", "unit": "µM"}, {"measurement": "TGI", "setting": "[33]", "value": "> 100", "unit": "µM"}, {"measurement": "TGI", "setting": "[34]", "value": "> 100", "unit": "µM"}, {"measurement": "TGI", "setting": "[35]", "value": "> 100", "unit": "µM"}, {"measurement": "TGI", "setting": "[36]", "value": "> 100", "unit": "µM"}, {"measurement": "TGI", "setting": "[37]", "value": "> 100", "unit": "µM"}, {"measurement": "TGI", "setting": "[38]", "value": "> 100", "unit": "µM"}, {"measurement": "TGI", "setting": "[39]", "value": 82.7, "unit": "µM"}, {"measurement": "TGI", "setting": "[40]", "value": "> 100", "unit": "µM"}, {"measurement": "TGI", "setting": "[41]", "value": "> 100", "unit": "µM"}, {"measurement": "TGI", "setting": "[42]", "value": "> 100", "unit": "µM"}, {"measurement": "TGI", "setting": "[43]", "value": "> 100", "unit": "µM"}, {"measurement": "TGI", "setting": "[44]", "value": "> 100", "unit": "µM"}, {"measurement": "TGI", "setting": "[45]", "value": 73.1, "unit": "µM"}, {"measurement": "TGI", "setting": "[46]", "value": "> 100", "unit": "µM"}, {"measurement": "TGI", "setting": "[47]", "value": "> 100", "unit": "µM"}, {"measurement": "TGI", "setting": "[48]", "value": "> 100", "unit": "µM"}, {"measurement": "TGI", "setting": "[49]", "value": "> 100", "unit": "µM"}, {"measurement": "TGI", "setting": "[50]", "value": "> 100", "unit": "µM"}, {"measurement": "TGI", "setting": "[51]", "value": "> 100", "unit": "µM"}, {"measurement": "TGI", "setting": "[52]", "value": 54.9, "unit": "µM"}, {"measurement": "TGI", "setting": "[53]", "value": "> 100", "unit": "µM"}, {"measurement": "TGI", "setting": "[54]", "value": "> 100", "unit": "µM"}, {"measurement": "TGI", "setting": "[55]", "value": "> 100", "unit": "µM"}, {"measurement": "TGI", "setting": "[56]", "value": "> 100", "unit": "µM"}, {"measurement": "TGI", "setting": "[57]", "value": "> 100", "unit": "µM"}]}]}
